Experiment [1] concerns the target Nucleic Acid. Put plainly: Binding affinity to Bcl-2 promoter duplex DNA by surface plasmon resonance assay. In kind it is nucleic-acid assay. (In general: Surface plasmon resonance follows binding to a sensor surface in real time, without labels.)
The subject of experiment [2] is Nucleic Acid. Put plainly: Stabilization of single-strand oligonucleotide MidG4 assessed as melting temperature by FRET assay. The experiment is classed as nucleic-acid assay.
Experiment [3] has as its system Nucleic Acid. Put plainly: Binding affinity to human single-strand oligonucleotide MutPu39 transfected in human HL60 cells assessed as Bcl-2 transcriptional activation at 0.4 uM after 48 hrs by luciferase reporter gene assay relative to untreated MutPu39-construct control. In kind it is cell-based. As to conditions: HL-60. Background: Reporter assays use an easily measured gene product as a stand-in for the process of interest.

The target of experiment [4] is Nucleic Acid. Put plainly: Binding affinity to single-strand oligonucleotide Pu39 assessed as formation of G-quadruplex complex after 3 mins by PCR stop assay. The experiment is classed as nucleic-acid assay.
The test system of experiment [5] is Nucleic Acid. Put plainly: Selectivity ratio of Kd for Bcl-2 promoter duplex DNA to Kd for Bcl-2 promoter quadruplex DNA. In kind it is nucleic-acid assay.
The target of experiment [6] is Nucleic Acid. Put plainly: Binding affinity to Bcl-2 promoter quadruplex DNA by surface plasmon resonance assay. In kind it is nucleic-acid assay.
Experiment [7] has as its system Nucleic Acid. Put plainly: Binding affinity to human single-strand oligonucleotide Pu39 transfected in human HL60 cells assessed as Bcl-2 transcriptional activation at 0.4 uM after 48 hrs by luciferase reporter gene assay relative to untreated Pu39-construct control. In kind it is cell-based. The following applies: HL-60.
Experiment [8] has as its target Nucleic Acid. Put plainly: Binding affinity to single-strand oligonucleotide MutPu39 assessed as formation of G-quadruplex complex after 3 mins by PCR stop assay. The experiment is classed as nucleic-acid assay.
Experiment [9] concerns Nucleic Acid. Briefly: Binding affinity to human single-strand oligonucleotide MutPu39 transfected in human HL60 cells assessed as Bcl-2 transcriptional activation at 0.4 uM after 48 hrs by luciferase reporter gene assay relative to untreated Pu39-construct control. In kind it is cell-based. The following applies: HL-60.
Experiment [10] deals with Nucleic Acid. Briefly: Binding affinity to human single-strand oligonucleotide MutPu39 transfected in human HL60 cells assessed as reduction of Bcl-2 transcriptional activation at 0.4 uM after 48 hrs by luciferase reporter gene assay. The experiment is classed as cell-based. As to conditions: HL-60.
Experiment [11] relates to HL-60. Briefly: Antiproliferative activity against human HL60 cells at 0.02 to 0.2 uM after 4 days by trypan blue exclusion assay. The experiment is classed as functional, cell-based.
Experiment [12] relates to HL-60. Put plainly: Induction of apoptosis in human HL60 cells assessed as cleavage of 35 kDa procaspase-3 at 0.02 to 0.2 uM after 4 days by Western blot analysis. In kind it is functional, cell-based. On the technique in general: In western blotting, separated proteins are transferred to a membrane and probed.
Experiment [13] relates to HL-60. Put plainly: Downregulation of Bcl-2 protein expression in human HL60 cells at 0.02 to 0.2 uM after 4 days by Western blot analysis. The experiment is classed as functional, cell-based.
The subject of experiment [14] is HL-60. Put plainly: Cell cycle arrest in human HL60 cells assessed as accumulation at sub-G1 phase at 0.2 uM after 4 days by propidium iodide staining-based flow cytometry. In kind it is functional.
Experiment [15] concerns HL-60. Put plainly: Induction of apoptosis in human HL60 cells assessed as cleavage of 17 kDa procaspase-3 at 0.02 to 0.2 uM after 4 days by Western blot analysis. In kind it is functional, cell-based.
For experiment [16], the system named is HL-60. Briefly: Cell cycle arrest in human HL60 cells assessed as accumulation at sub-G1 phase at 0.05 uM after 4 days by propidium iodide staining-based flow cytometry. The experiment is classed as functional.
Experiment [17] relates to HL-60. Briefly: Induction of apoptosis in human HL60 cells assessed as PARP cleavage at 0.2 uM after 4 days by Western blot analysis. The experiment is classed as functional, cell-based.
Experiment [18] deals with HL-60. Briefly: Downregulation of Bcl-2 mRNA expression in human HL60 cells by RT-PCR analysis. The experiment is classed as functional, cell-based.
Experiment [19] concerns Nucleic Acid. Briefly: Binding affinity to human single-strand oligonucleotide Pu39 transfected in human HL60 cells assessed as reduction of Bcl-2 transcriptional activation at 0.4 uM after 48 hrs by luciferase reporter gene assay. The following applies: HL-60. In kind it is cell-based.
Experiment [20] has as its system HL-60. Briefly: Downregulation of Bcl-2 mRNA expression in human HL60 cells at 0.2 uM by RT-PCR analysis. In kind it is functional.
Experiment [21] has as its system HL-60. Briefly: Antiproliferative activity against human HL60 cells assessed as viable cells at 0.2 uM after 4 days by trypan blue exclusion assay. In kind it is functional. The following applies: HL-60, 96 h, read-out: Activity.
Experiment [22] has as its system HL-60. Put plainly: Cell cycle arrest in human HL60 cells assessed as accumulation at sub-G1 phase at 0.1 uM after 4 days by propidium iodide staining-based flow cytometry. The experiment is classed as functional.
Experiment [23] has as its system HL-60. Briefly: Induction of apoptosis in human HL60 cells assessed as cleavage of 17 kDa procaspase-3 at 0.1 to 1 uM after 4 days by Western blot analysis. The experiment is classed as functional, cell-based.
The subject of experiment [24] is HL-60. Put plainly: Downregulation of Bcl-2 protein expression in human HL60 cells at 0.1 to 1 uM after 4 days by Western blot analysis. The experiment is classed as functional, cell-based.
Experiment [25] deals with HL-60. Put plainly: Downregulation of Bcl-2 mRNA expression in human HL60 cells at 0.8 uM by RT-PCR analysis. The experiment is classed as functional.
Experiment [26] has as its system HL-60. Put plainly: Induction of apoptosis in human HL60 cells assessed as cleavage of 35 kDa procaspase-3 at 0.1 to 1 uM after 4 days by Western blot analysis. In kind it is functional, cell-based.
For experiment [27], the system named is HL-60. Briefly: Cell cycle arrest in human HL60 cells assessed as accumulation at sub-G1 phase at 1 uM after 4 days by propidium iodide staining-based flow cytometry. In kind it is functional.
The subject of experiment [28] is HL-60. Briefly: Induction of apoptosis in human HL60 cells assessed as PARP cleavage at 1 uM after 4 days by Western blot analysis. In kind it is functional, cell-based.
Experiment [29] deals with HL-60. Put plainly: Antiproliferative activity against human HL60 cells assessed as viable cells at 1 uM after 4 days by trypan blue exclusion assay. In kind it is functional. The following applies: HL-60, 96 h, read-out: Activity.
Experiment [30] deals with HL-60. Briefly: Cell cycle arrest in human HL60 cells assessed as accumulation at sub-G1 phase at 0.5 uM after 4 days by propidium iodide staining-based flow cytometry. The experiment is classed as functional.
For experiment [31], the system named is HL-60. Briefly: Antiproliferative activity against human HL60 cells at 0.1 to 1 uM after 4 days by trypan blue exclusion assay. In kind it is functional, cell-based.

Active and inactive are the calls of the source. The rule behind the calls is not given here.

The Kd is the free concentration of one partner at which half of the binding sites on the other are occupied at equilibrium, for simple one-to-one binding. Higher therefore signals weaker binding. Usually IC50 stands for the concentration needed to halve the response being measured. As a reminder, the inhibition is the drop in the measured response relative to a control, in per cent.

In the case of `OCCNc1c2ccccc2nc2c1[nH]c1ccccc12`, the values for the equilibrium dissociation constant (Kd) at Nucleic Acid [1] and at Nucleic Acid [6] were 3.38 µM and 1.5 µM, respectively. Further, in the experiment on Nucleic Acid [2], the Tm was found to be 51.5 °C. Besides, the figures for the Activity in the experiment on Nucleic Acid [3], with Nucleic Acid [7] and with Nucleic Acid [9] were 92.6%, 84.4% and 163%, respectively. Besides, the IC50 at Nucleic Acid [4] and at Nucleic Acid [8] was above 100 µM each time. For the same compound, the Selectivity ratio in the experiment on Nucleic Acid [5] stood at 2.3.
On to `CN(C)CCCNc1c2ccccc2[n+](C)c2c1[nH]c1ccc(F)cc12.[I-]`, for which the dissociation constant (Kd) stood at 0.269 µM on Nucleic Acid [1] and 0.0318 µM at Nucleic Acid [6]. For the same compound, the figures for the inhibition with Nucleic Acid [10] and in the experiment on Nucleic Acid [19] were 25% and 50%, respectively. In addition, the outcome with HL-60 [11], in the experiment with HL-60 [12], in the experiment on HL-60 [13] and in the experiment with HL-60 [17] was Active. Further, the Tm in the experiment on Nucleic Acid [2] is 76.9 °C. Besides, the Activity in the experiment with Nucleic Acid [3] was 74.6%; with HL-60 [14] it was 3.5%; in the experiment on HL-60 [16], 5%; in the experiment with HL-60 [18] it was “Dose-dependent effect”; in the experiment with HL-60 [20], 50%; in the experiment with Nucleic Acid [7], 51.4%. Further, the Activity with HL-60 [22] turned out to be 23.8%; with Nucleic Acid [9] it was 132%. Moreover, the IC50 on Nucleic Acid [4] turned out to be 1.11 µM; on Nucleic Acid [8], 19.7 µM. Besides, the outcome in the experiment on HL-60 [15] was inactive. Besides, the viability at 0.2 µM in the experiment with HL-60 [21] is below 25%.
Turning to `CN(C)CCCNc1c2ccccc2nc2c1[nH]c1ccc(F)cc12`, the values for the Kd at Nucleic Acid [1] and on Nucleic Acid [6] were 0.482 µM and 0.167 µM, respectively. Also, the result with HL-60 [23] was inactive. Moreover, the inhibition is 12% in the experiment with Nucleic Acid [10] and 30% with Nucleic Acid [19]. For the same compound, the result in the experiment on HL-60 [24], in the experiment with HL-60 [26], in the experiment with HL-60 [28] and in the experiment with HL-60 [31] was Active. In addition, the Activity is 50% in the experiment with HL-60 [25]; 88.3% with Nucleic Acid [3]; 22.3% in the experiment with HL-60 [27]; 3% in the experiment on HL-60 [14]; “Dose-dependent effect” in the experiment with HL-60 [18]; 70.5% in the experiment with Nucleic Acid [7]. In addition, the Activity in the experiment on HL-60 [30] amounted to 6.1%; in the experiment with Nucleic Acid [9], 156%. For the same compound, in the experiment with Nucleic Acid [2], the Tm was 65.1 °C. For the same compound, the IC50 was 74.4 µM at Nucleic Acid [4] and above 100 µM on Nucleic Acid [8]. Besides, the Selectivity ratio in the experiment on Nucleic Acid [5] was found to be 2.9. Also, the viability at 1 µM in the experiment on HL-60 [29] was below 25%.

The record behind these values is ChEMBL document CHEMBL1158594, “Turning off transcription of the bcl-2 gene by stabilizing the bcl-2 promoter quadruplex with quindoline derivatives” (J Med Chem, 2010).
